Laboratory results as given in patent publication US20120095036A1, “NOVEL SUBSTITUTED INDAZOLE AND AZA-INDAZOLE DERIVATIVES AS GAMMA SECRETASE MODULATORS” (priority 2009, published 2012).

How the values were obtained:
Aβtotal = test: Method 1: Aβtotal sandwich ELISA on media of SKNBE2 cells carrying APP 695 wild type; format: cell-based; details: Homo sapiens, SKNBE2 cells APP 695 wild type, 18 hours
Method in brief: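 SKNBE2 cells expressing wild-type APP695 treated with compound for 18 h in Ultraculture; secreted Aβtotal measured by 6E10-capture/biotinylated 4G8 sandwich ELISA with fluorogenic peroxidase read-out. IC50 from 4-parameter fit, top/bottom fixed at 100/0, Hill slope 1; toxicity checked by WST-1.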

Aβ42 [1] = test: In vivo efficacy: Aβ42 lowering in brain (ELISA); design: species or system mouse; details: brain soluble fraction; typical protocol: single oral dose, overnight fasted animals, after four hours
Description: To determine whether acute administration of an Aβ42 lowering agent would reduce Aβ42 levels in vivo, non-transgenic rodents, e.g. mice or rats were used. Alternatively, two to three month old Tg2576 mice expressing APP695 containing the “Swedish” variant can be used or a transgenic mouse model developed by Dr. Fred Van Leuven (K.U.Leuven, Belgium) and co-workers, with neuron-specific expression of a clinical mutant of the human amyloid precursor protein [V717I] (Moechars et al., 1999 J. Biol. Chem. 274, 6483). Young transgenic mice have high levels of Aβ in the brain but no detectable Aβ deposition. At approximately 6-8 months of age, the transgenic mice start to display spontaneous, progressive accumulation of β-amyloid (A13) in the brain, eventually resulting in amyloid plaques within the subiculum, hippocampus and cortex. Animals treated with the Aβ42 lowering agent were examined and compared to those untreated or treated with vehicle and brain levels of soluble Aβ42 and total Aβ would be quantitated by standard techniques, for example, using ELISA. Treatment periods varied from hours to days and were adjusted based on the results of the Aβ42 lowering once a time course of onset of effect could be established.
A typical protocol for measuring Aβ42 lowering in vivo is shown but it is only one of many variations that could be used to optimize the levels of detectable Aβ. For example, Aβ42 lowering compounds were formulated in 20% of Captisol® (a sulfobutyl ether of β-cyclodextrin) in water or 20% hydroxypropyl β cyclodextrin. The Aβ42 lowering agents were administered as a single oral dose or by any acceptable route of administration to overnight fasted animals. After four hours, the animals were sacrificed and Aβ42 levels were analysed.
Blood was collected by decapitation and exsanguinations in EDTA-treated collection tubes. Blood was centrifuged at 1900 g for 10 minutes (min) at 4° C. and the plasma recovered and flash frozen for later analysis. The brain was removed from the cranium and hindbrain. The cerebellum was removed and the left and right hemisphere were separated. The left hemisphere was stored at −18° C. for quantitative analysis of test compound levels. The right hemisphere was rinsed with phosphate-buffered saline (PBS) buffer and immediately frozen on dry ice and stored at −80° C. until homogenization for biochemical assays.
Mouse brains were resuspended in 10 volumes of 0.4% DEA (diethylamine)/50 mM NaCl pH 10 (for non-transgenic animals) or 0.1% 3-[(3-cholamidopropyl)-dimethyl-ammonio]-1-propanesulfonate (CHAPS) in tris buffered saline (TBS) (for transgenic animals) containing protease inhibitors (Roche-11873580001 or 04693159001) per gram of tissue, e.g. for 0.158 g brain, add 1.58 ml of 0.4% DEA. All samples were sonicated for 30 sec on ice at 20% power output (pulse mode). Homogenates were centrifuged at 221.300×g for 50 min. The resulting high speed supernatants were then transferred to fresh tubes and were optionally further purified before the next step. A portion of the supernatant was neutralized with 10% 0.5 M Tris-HCl and this was used to quantify Aβtotal.
The obtained supernatants were purified with Water Oasis HLB reverse phase columns (Waters Corp., Milford, Mass.) to remove non-specific immunoreactive material from the brain lysates prior subsequent Aβ detection. Using a vacuum manifold, all solutions were passed through the columns at a rate of approximately 1 ml/min, so the vacuum pressure was adjusted accordingly throughout the procedure. Columns were preconditioned with 1 ml of 100% MeOH, before equilibration with 1 ml of H2O, Non-neutralized brain lysates were loaded onto the columns. The loaded samples were then washed twice with the first wash performed with 1 ml of 5% MeOH, and the second wash with 1 ml of 30% MeOH. Finally, the Aβ was eluted from the columns and into 100×30 mm glass tubes, with a solution of 90% MeOH with 2% NH4OH. […]

Aβ42 [2] = test: Method 1: Aβ42 sandwich ELISA on media of SKNBE2 cells carrying APP 695 wild type (γ-secretase-modulating activity); format: cell-based; details: Homo sapiens, SKNBE2 cells APP 695 wild type, 18 hours
Method in brief: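 SKNBE2 cells expressing wild-type APP695 exposed to compounds for 18 h in Ultraculture with 1% glutamine. Secreted Aβ42 in media quantified by sandwich ELISA (C-terminal capture, biotinylated 3D6 detection, TMB, 450 nm). IC50 from 4-parameter fit, top/bottom fixed 100/0, Hill slope fixed 1; toxicity checked by WST-1.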

Compound | IC50 (Aβtotal) | Aβ42 (% Ctrl) _Mean (Aβ42 [1]) | IC50 (Aβ42 [2])
COc1cccc(-n2cc3cccc(Nc4ccc(-n5cnc(C)c5)c(OC)c4)c3n2)c1 [Compound 1, N-[3-methoxy-4-(4-methyl-1H-imidazol-1-yl)phenyl]-2-(3-methoxyphenyl)-2H-indazol-7-amine] | > 3000 nM | 94 % Ctrl | 46 nM
COc1cc(Nc2cccc3cn(CC4CC4)nc23)ccc1-c1cnc(C)o1.Cl [Compound 38, 2-(cyclopropylmethyl)-N-[3-methoxy-4-(2-methyl-5-oxazolyl)phenyl]-2H-indazol-7-amine HCl] | > 3000 nM | 123 % Ctrl | 518 nM
COc1cccc(-n2nc3c(Nc4ccc(-n5cnc(C)c5)c(OC)c4)cccc3c2C)c1 [Compound 2, N-[3-methoxy-4-(4-methyl-1H-imidazol-1-yl)phenyl]-2-(3-methoxyphenyl)-3-methyl-2H-indazol-7-amine] | > 1000 nM | 59 % Ctrl | 7 nM
COc1cc(Nc2cccc3cn(Cc4ccc(F)cc4)nc23)ccc1-n1cnc(C)c1 [Compound 15, 2-[(4-fluorophenyl)methyl]-N-[3-methoxy-4-(4-methyl-1H-imidazol-1-yl)phenyl]-2H-indazol-7-amine] | > 3000 nM | 69 % Ctrl | 75 nM
COc1cc(Nc2cccc3cn(CC(F)(F)F)nc23)ccc1-c1cnc(C)o1 [Compound 6, N-[3-methoxy-4-(2-methyl-5-oxazolyl)phenyl]-2-(2,2,2-trifluoroethyl)-2H-indazol-7-amine] | > 3000 nM | 79 % Ctrl | 152 nM
COc1cccc(-n2nc3c(Nc4ccc(-c5cnc(C)o5)cc4)cccc3c2C)c1 [Compound 29, 2-(3-methoxyphenyl)-3-methyl-N-[4-(2-methyl-5-oxazolyl)phenyl]-2H-indazol-7-amine] | > 1000 nM | 96 % Ctrl | 28 nM
COc1cccc(-n2nc3c(Nc4ccc(-c5cnc(C)o5)c(OC)c4)nccc3c2C)c1 [Compound 42, N-[3-methoxy-4-(2-methyl-5-oxazolyl)phenyl]-2-(3-methoxyphenyl)-3-methyl-2H-pyrazolo[3,4-c]pyridin-7-amine] | > 3000 nM | 104 % Ctrl | 91 nM
